Results on two molecules are retold here after paper PMC6587507, “Comparison of the metabolism of 10 chemicals in human and pig skin explants” (Journal of Applied Toxicology, 2018).

The test system of series [1] is human abdominal skin explants. Nature of the series: Cutaneous distribution and mass balance of radioactivity in human skin explants. The following applies: human skin; for % Radioactivity in culture media after 24 h / Mass balance (% of applied dose at end of incubation): 24 h; for Skin surface radioactivity / Medium radioactivity / Skin radioactivity: end of incubation (24 h), mean ± SD. On the procedure: (§1) Human abdominal skin was obtained (with consent for research from a commercial supplier [L’Union Clinic, Rangueil hospital and Icelltis, Toulouse, France] with certified ethical procedures) from six male and 34 female healthy donors, 41 ± 11 years of age, undergoing cosmetic surgery. Abdominal skin was kept at 4°C during transports and placed in culture within 3 hours of surgery. Pig ear skin was a waste product of the meat industry (without hot steam treatment) from domestic pigs (female Pietrain breed, 6 months old, 80‐100 kg) obtained from a local slaughterhouse (Montauban, France). Ears were taken from the animals within 5 minutes of slaughter and were kept at 4°C during transport to the laboratory, which lasted a maximum of 2 hours. Pig skin samples were dried and then gently shaved.
(§2) The experiment and the preparation of the culture medium were performed under sterile conditions. Human and pig skin was cut with a dermatome to a thickness of 450 ± 50 μm. Skin punches were seeded dermal side down in polycarbonate Transwell® inserts from Corning Life Sciences (Avon, France; 4.16 cm^2 application area with an 8 μm pore size filter). […] The inserts were placed in a six‐well plate containing 1.5 mL culture medium and the skin explants incubated in a standard incubator at 37°C, under an atmosphere of 5% CO2 and 50 ± 10% relative humidity. The culture medium was Dulbecco's modified Eagle medium without phenol red supplemented with 8 mM L‐glutamine, 2 μg/mL streptomycin/penicillin, 25 ng/mL fungizone and 50 ng/mL gentamycin. Skin explants were incubated for 1 hour before application of the formulation.
(§3) The dosing volume was 10 μL/cm^2. For pig skin metabolism studies, which were carried out before the human skin experiments to ensure the analytics were optimal, 2.4 nmol/cm^2 of each chemical (only the ^14C‐labeled form) was applied on the skin and incubated for 24 hours for the measurement of metabolites in the medium. These tissues were further incubated for a total of 48 hours, with a replacement of the culture medium after 24 hours. This longer incubation time and the standard doses of 2.4 nmol/cm^2 were used to maximize the likelihood of the skin forming metabolites to develop analytical methods. The metabolites profiles in pig and human skin were compared in the medium sample at 24 hours of incubation. The metabolite profiles for the 48‐hour timepoint are not reported here since humans skin metabolism was measured at 24 hours only; however, for completeness, the distribution of radioactivity at the end of both pig (48 hours) and human (24 hours) skin incubations is reported. […] The doses were obtained by mixing radiolabeled and cold chemical. One replicate disc per donor and per dose was used. All chemicals were tested on four donors of pig and human skin, except for 2‐AAF and 4‐amino‐3‐nitrophenol (4‐A‐3‐NP), for which three donors were used. The medium was removed after 24 hours of incubation and stored at −20°C for analysis.
(§4) At the end of the experiment, the trans‐wells were dismantled and washed with appropriate solvent for each chemical. […] The cotton swabs were placed in 5 mL of appropriate solvent in a scintillation counting flask and placed in a sonicator bath for 20 minutes. Aliquots of 1 mL were counted by liquid scintillation, after addition of 15 mL of scintillation liquid. Tissue culture inserts were washed with 10 mL of appropriate solvent. One aliquot of 1 mL was counted by liquid scintillation, after addition of 15 mL of scintillation liquid. After media removal, wells were washed twice with 1 mL of the appropriate solvent. Washing solutions were counted by liquid scintillation, after addition of 15 mL of scintillation liquid.
(§5) Pig skin explants were digested using 3 mL Soluable (60°C for 24 hours) and counted by liquid scintillation. Skin extraction process was adapted according to the physicochemical properties of each chemical and its potential metabolites.

For series [2] the following is noted: ref Chemspider (www.chemspider.com), cited from earlier work.
The next series deals with skin explants. Nature of the series: Skin explant assay, radioactivity in culture medium bound to proteins. In kind it is in vitro ADME. The following applies: medium with 4% BSA; species not stated.
Series [3] concerns pig ear skin explants. On the procedure: as §1, §2, §3
(§6) After centrifugation, a 100 μL aliquot of the extract was counted by liquid scintillation. The pellet was dissolved in 3 mL Soluable (60°C, 24 hours) and then counted by liquid scintillation.
(§7) Analysis of the chemicals and their metabolites in medium after 24 hours of incubation with pig and human skin was measured by radio‐high‐performance liquid chromatography (HPLC) using an HPLC 1100 Series, Agilent and a Flow Scintillation Analyzer, Radiomatic 610 TR, Perkin Elmer (Villebon‐sur‐Yvette, France). […] To confirm that metabolites were the same in pig and human skin, medium samples were co‐injected on the new column. The metabolites were identified by LC‐electrospray ionization‐HRMS (HPLC‐ESI‐HRMS) with a RSLC3000 HPLC system coupled to a LTQ‐Orbitrap XL mass spectrometer (Thermo Scientific). The HPLC analytical conditions for identification and quantification of the metabolites for each chemical are summarized in Supporting information Table S1.

Series [4] concerns human abdominal skin explants. On the procedure: as §1, §2, §3, §6, §7
For series [5], the system named is pig ear skin explants. The experiment in a line: Cutaneous distribution and mass balance of radioactivity in pig skin explants. The following applies: pig skin; for % Radioactivity in culture media after 24 h / Mass balance (% of applied dose at end of incubation): 2.4 nmol/cm^2; for Mass balance (% of applied dose at end of incubation): 48 h; for Skin surface radioactivity / Medium radioactivity / Skin radioactivity: end of incubation (48 h), mean ± SD. How it is done:
as §1, §2, §3, §4, §5

Series [6] concerns N‐acetyltransferase (NAT)1 enzyme. The arrangement: method as in unpublished data. The following applies: ref unpublished data; cited from earlier work.

Each structure is given as a SMILES string.

As for `Nc1ccc(Cl)cc1` [4‐Chloroaniline], the “% Radioactivity in culture media after 24 h” value (“% Radioactivity” for short) is on record as 49.7 ± 4.4% in series [1] and 54.3 ± 0.6% with pig ear skin explants [5]. Moreover, the “Mass balance (% of applied dose at end of incubation)” value is on record as 86.2 ± 0.7 % of applied dose in series [1] and 99.2 ± 10.8 % of applied dose in the series on pig ear skin explants [5]. Moreover, the Skin surface radioactivity in series [1] was 2.2 ± 0.5 % of the applied dose; with pig ear skin explants [5] it was 0.7 ± 0.2 % of the applied dose. The Medium radioactivity is listed as 49.7 ± 4.4 % of the applied dose in series [1] (listed as 4-Chloroaniline), 50 % of the applied dose in series [1] (listed as 4‐chloroaniline), 82.1 ± 8.8 % of the applied dose in the series with pig ear skin explants [5] (listed as 4-Chloroaniline) and 82 % of the applied dose in the series on pig ear skin explants [5] (listed as 4‐chloroaniline). Moreover, the Skin radioactivity in series [1] (listed as 4-Chloroaniline) was 34.4 ± 3.8 % of the applied dose; in series [1] (listed as 4‐chloroaniline), 35 % of the applied dose; with pig ear skin explants [5] (listed as 4-Chloroaniline) it was 16.3 ± 2.3 % of the applied dose; with pig ear skin explants [5] (listed as 4‐chloroaniline), 16 % of the applied dose. In series [2], the Maximum water solubility is reported as 3.2 mg/mL. Further, the “Radioactivity detected in the culture medium bound to proteins” value in the series on skin explants is recorded as ~ 20%. The “Metabolites detected in the skin or culture media” value (in the series on pig ear skin explants [3] (pig skin); in series [4] (human skin)) was “no metabolites were detected” throughout.

By LogP is commonly meant a log measure of how a compound divides between an organic and an aqueous phase. As to `Nc1ccc(O)cc1[N+](=O)[O-]` [4‐A‐3‐NP, 4‐amino‐3‐nitrophenol], in series [1], the “% Radioactivity” value was found to be 62.3 ± 3.4%, the “Mass balance (% of applied dose at end of incubation)” value is reported as 94.4 ± 3.0 % of applied dose, the Medium radioactivity is listed as 62.3 ± 3.4 % of the applied dose and the Skin radioactivity is reported as 28.6 ± 4.5 % of the applied dose. For the same molecule, the Skin surface radioactivity in series [1] was 3.6 ± 2.1 % of the applied dose. In series [2], the LogP is 0.41 and the Maximum water solubility is recorded as 2.0 mg/mL. The “N‐acetylated metabolite” value in the series with pig ear skin explants [3] (pig skin incubations) is “not detected”. Moreover, the “Parent compound in the medium after 24 h” value in the series on pig ear skin explants [3] (pig skin, 24 h, mean ± SEM) is reported as 0.6 ± 0.2 % Applied dose. Besides, the “N‐acetylated metabolite” value in series [4] (human skin incubations) is “not detected”. Also, the “Parent compound in the medium after 24 h” value in series [4] (human skin, 24 h, mean ± SEM) is 0.1 ± 0.06 % Applied dose. In addition, the “Substrate for NAT1” value in series [6] is given as “not a substrate”. Moreover, in the series on pig ear skin explants [5], the “% Radioactivity” value is given as 51.9 ± 6.7%, the “Mass balance (% of applied dose at end of incubation)” value was 96.0 ± 2.6 % of applied dose, the Medium radioactivity is recorded as 69.9 ± 5.8 % of the applied dose and the Skin radioactivity is recorded as 15.6 ± 5.3 % of the applied dose. Further, the Skin surface radioactivity in the series with pig ear skin explants [5] is given as 10.5 ± 5.1 % of the applied dose.
